Test results reported in PMC7329795 (Pharmacological Reports, 2020).
Read-outs that look alike come from different tables or passages of the source.

Columns and labels:
CYP1A2 [1] = target: T1, CYP1A2 (Homo sapiens, UniProt P05177)
T1 sequence (P05177 1-516): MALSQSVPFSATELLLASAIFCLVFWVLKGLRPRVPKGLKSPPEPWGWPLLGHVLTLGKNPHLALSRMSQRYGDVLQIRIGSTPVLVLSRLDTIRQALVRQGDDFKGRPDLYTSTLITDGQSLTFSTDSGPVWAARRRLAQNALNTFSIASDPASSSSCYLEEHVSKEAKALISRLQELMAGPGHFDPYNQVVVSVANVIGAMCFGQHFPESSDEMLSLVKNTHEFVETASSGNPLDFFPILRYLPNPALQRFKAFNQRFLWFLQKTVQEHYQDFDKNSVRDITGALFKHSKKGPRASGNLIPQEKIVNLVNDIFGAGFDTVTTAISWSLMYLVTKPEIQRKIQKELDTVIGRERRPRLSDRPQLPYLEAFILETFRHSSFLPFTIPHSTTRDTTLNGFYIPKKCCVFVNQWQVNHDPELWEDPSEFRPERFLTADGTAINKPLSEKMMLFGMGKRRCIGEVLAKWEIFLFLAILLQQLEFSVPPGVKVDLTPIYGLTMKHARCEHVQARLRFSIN

[2] = cited from earlier work
CYP2D6 [3] = target: T2, CYP2D6 (Homo sapiens, UniProt P10635)
CYP2D6 [4] = target: T2, CYP2D6; settings: liver microsomes; Lineweaver–Burk's plots
[5] = cited from earlier work; remark: listed apart in the source
CYP2C19 [6] = target: T3, CYP2C19 (Homo sapiens, UniProt P33261); settings: liver microsomes; asenapine 0.01-10 μM
CYP2C19 [7] = target: T3, CYP2C19
[8] = target: T4, human cDNA-expressed CYP2D6 (Homo sapiens, UniProt P10635)
CYP2C9 [9] = target: T5, CYP2C9 (Homo sapiens, UniProt P11712); assay: CYP2C9 activity, diclofenac 4′-hydroxylation, pooled human liver microsomes
Procedure: (§1) The final incubation volume was 0.5 ml. After a 30-min incubation, the reaction was stopped by adding 100 µl of acetonitrile. […] The final concentration of CYP2C9 was 50 pmol/ml. Concentrations of diclofenac and its metabolite 4′-hydroxydiclofenac, formed in liver microsomes or Supersomes 2C9, were assessed by the HPLC method with UV detection, as described previously.

CYP1A2 [10] = target: T1, CYP1A2; settings: liver microsomes; Lineweaver–Burk's plots
[11] = target: human cDNA-expressed CYP3A4 (Homo sapiens, UniProt P08684)
[12] = target: human cDNA-expressed CYP2C9 (Homo sapiens, UniProt P11712); assay: CYP2C9 activity, diclofenac 4′-hydroxylation, Supersomes CYP2C9
Procedure: as §1

[13] = cited from earlier work; remark: listed apart in the source
CYP3A4 [14] = target: T6, CYP3A4 (Homo sapiens, UniProt P08684)
[15] = target: T4, human cDNA-expressed CYP2D6; settings: recombinant enzyme
CYP2D6 [16] = target: T2, CYP2D6; set-up: method as in PMID 26033329; settings: psychiatric patients; cited from earlier work
CYP2C9 [17] = target: T5, CYP2C9; assay: CYP2C9 activity, diclofenac 4′-hydroxylation, Supersomes CYP2C9; settings: human, pH 7.4, probe diclofenac (4′-hydroxylation)
Procedure: as §1

[18] = clinical studies; cited from earlier work
CYP3A4 [19] = target: T6, CYP3A4; assay: in vitro; settings: pH 7.4
CYP3A4 [20] = target: T6, CYP3A4; assay: in vitro; settings: pH 7.4; remark: listed apart in the source
[21] = substrate: CN1CCN(CCCN2c3ccccc3Sc3ccccc32)CC1
[22] = substrate: Cn1c(=O)c2c(ncn2C)n(C)c1=O

T5 sequence (P11712 whole entry): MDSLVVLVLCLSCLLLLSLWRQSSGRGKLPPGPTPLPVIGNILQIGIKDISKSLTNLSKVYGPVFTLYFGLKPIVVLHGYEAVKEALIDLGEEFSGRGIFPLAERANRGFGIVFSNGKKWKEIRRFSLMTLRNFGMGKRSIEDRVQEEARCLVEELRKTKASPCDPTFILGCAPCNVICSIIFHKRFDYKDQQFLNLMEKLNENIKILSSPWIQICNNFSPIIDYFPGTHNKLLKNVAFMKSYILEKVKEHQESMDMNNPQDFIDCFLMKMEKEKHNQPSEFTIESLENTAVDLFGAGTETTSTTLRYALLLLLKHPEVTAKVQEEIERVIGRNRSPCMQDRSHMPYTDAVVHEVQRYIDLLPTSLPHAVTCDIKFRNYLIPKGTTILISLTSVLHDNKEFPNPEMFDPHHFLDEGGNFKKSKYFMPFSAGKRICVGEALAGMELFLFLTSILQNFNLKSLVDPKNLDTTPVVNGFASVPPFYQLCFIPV
T6 sequence (P08684 whole entry): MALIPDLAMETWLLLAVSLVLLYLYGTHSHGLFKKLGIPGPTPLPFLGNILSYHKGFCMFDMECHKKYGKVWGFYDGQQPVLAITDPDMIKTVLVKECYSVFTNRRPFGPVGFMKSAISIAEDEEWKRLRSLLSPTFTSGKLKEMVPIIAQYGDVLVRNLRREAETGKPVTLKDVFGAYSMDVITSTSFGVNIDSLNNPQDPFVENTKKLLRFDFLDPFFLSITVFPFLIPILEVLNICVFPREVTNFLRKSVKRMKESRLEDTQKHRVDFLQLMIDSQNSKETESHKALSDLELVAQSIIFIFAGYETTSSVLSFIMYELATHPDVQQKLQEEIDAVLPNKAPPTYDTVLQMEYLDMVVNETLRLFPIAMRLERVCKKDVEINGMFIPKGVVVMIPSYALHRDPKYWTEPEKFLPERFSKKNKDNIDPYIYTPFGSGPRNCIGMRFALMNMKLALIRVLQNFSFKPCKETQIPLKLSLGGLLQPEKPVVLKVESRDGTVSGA
T4 sequence (P10635 whole entry): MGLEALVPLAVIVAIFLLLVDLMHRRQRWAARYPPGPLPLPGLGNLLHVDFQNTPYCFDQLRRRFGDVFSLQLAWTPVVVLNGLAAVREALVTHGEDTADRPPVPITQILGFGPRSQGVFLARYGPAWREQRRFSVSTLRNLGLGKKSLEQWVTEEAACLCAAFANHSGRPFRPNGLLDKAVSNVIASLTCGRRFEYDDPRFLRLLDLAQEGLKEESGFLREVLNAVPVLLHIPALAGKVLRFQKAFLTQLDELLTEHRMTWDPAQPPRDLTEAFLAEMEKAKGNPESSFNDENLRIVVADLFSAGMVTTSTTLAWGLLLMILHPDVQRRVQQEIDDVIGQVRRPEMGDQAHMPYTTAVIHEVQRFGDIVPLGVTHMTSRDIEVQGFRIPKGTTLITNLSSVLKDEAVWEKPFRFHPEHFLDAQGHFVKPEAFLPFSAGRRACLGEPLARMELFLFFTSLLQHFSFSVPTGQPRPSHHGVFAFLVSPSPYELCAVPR
T2 sequence (P10635 whole entry): as above
human cDNA-expressed CYP2C9, sequence (P11712 whole entry): as the sequence (P11712 whole entry) above
human cDNA-expressed CYP3A4, sequence (P08684 whole entry): as the sequence (P08684 whole entry) above

In the case of `CN1CC2c3ccccc3Oc3ccc(Cl)cc3C2C1` (stereo not drawn) [Asenapine], the IC50 (CYP1A2 [1]) is listed as 0.697 µM, the Ki (CYP1A2 [1]) is listed as 3.2 µM and the “bound to plasma proteins” value [2] is listed as 95%. The IC50 (CYP2D6 [3]) was 0.391 µM, the Ki (CYP2D6 [3]) was 1.75 µM and the “type of inhibition (CYP2D6)” value (CYP2D6 [4]) was “competitive”. For the same molecule, the “estimated terminal half-life (t1/2)” value ([5]; adults) was “approximately 24 h”, the therapeutic plasma concentrations [5] was “up to 0.1 μM” and the “effect on the activity of CYP2C19” value (CYP2C19 [6]) was “did not affect”. The IC50 (CYP2C19 [7]) was over 1000 µM, the IC50 [8] was 0.398 µM and the Ki [8] was 1.89 µM. The IC50 (CYP2C9 [9]) was over 1000 µM, the “effect on the activity of CYP2C9” value (CYP2C9 [9]; liver microsomes, asenapine 0.01-10 μM) was “did not affect” and the “type of inhibition (CYP1A2)” value (CYP1A2 [10]) was “mixed”. The “type of inhibition (CYP3A4)” value ([11]; recombinant enzyme) was “non-competitive”, the IC50 [12] was over 1000 µM and the pKa ([13]; amine) was 9.64. The “log P” value ([13]; cationic form) was 1.4, the “log P” value ([13]; neutral form) was 4.9 and the pKa ([13]; protonated base) was 8.6. For the same molecule, the “type of inhibition (CYP3A4)” value (CYP3A4 [14]; liver microsomes, Lineweaver–Burk's plots) was “non-competitive”, the “type of inhibition (CYP2D6)” value [15] was “competitive” and the “effect on the concentration of paroxetine (a CYP2D6 substrate) in the blood plasma” value (CYP2D6 [16]) was “doubled”.

For `O=C(O)Cc1ccccc1Nc1c(Cl)cccc1Cl` [diclofenac], the Km at 30 min (CYP2C9 [9]; human, pH 7.4) was 137 µM, the “Vmax, diclofenac 4′-hydroxylation” value ([12]; Supersomes CYP2C9) was 213.6 pmol/pmol CYP/min and the Km at 30 min (CYP2C9 [17]) was 132 µM.

For `O=C(CCCN1CCC(O)(c2ccc(Cl)cc2)CC1)c1ccc(F)cc1` [haloperidol], the “concentration in the liver relative to that in plasma” value [18] is given as 900 fold.

In the case of `C[C@]12CC[C@H]3[C@@H](CCC4=CC(=O)CC[C@@]43C)[C@@H]1CC[C@@H]2O` [testosterone], the Km at 30 min (CYP3A4 [19]) is reported as 428 µM, the “Vmax, testosterone 6β-hydroxylation” value ([11]; Supersomes CYP3A4) is reported as 42.9 pmol/pmol CYP/min and the “Vmax, testosterone 6β-hydroxylation” value (CYP3A4 [14]; human liver microsomes) is reported as 72.9 pmol/mg protein/min. It also gave a Km at 20 min (CYP3A4 [20]) of 283 µM.

B1: CYP2C19 (Homo sapiens) (protein)
chain: MDPFVVLVLCLSCLLLLSIWRQSSGRGKLPPGPTPLPVIGNILQIDIKDVSKSLTNLSKIYGPVFTLYFGLERMVVLHGYEVVKEALIDLGEEFSGRGHFPLAERANRGFGIVFSNGKRWKEIRRFSLMTLRNFGMGKRSIEDRVQEEARCLVEELRKTKASPCDPTFILGCAPCNVICSIIFQKRFDYKDQQFLNLMEKLNENIRIVSTPWIQICNNFPTIIDYFPGTHNKLLKNLAFMESDILEKVKEHQESMDINNPRDFIDCFLIKMEKEKQNQQSEFTIENLVITAADLLGAGTETTSTTLRYALLLLLKHPEVTAKVQEEIERVIGRNRSPCMQDRGHMPYTDAVVHEVQRYIDLIPTSLPHAVTCDVKFRNYLIPKGTTILTSLTSVLHDNKEFPNPEMFDPRHFLDEGGNFKKSNYFMPFSAGKRICVGEGLARMELFLFLTFILQNFNLKSLIDPKDLDTTPVVNGFASVPPFYQLCFIPV
Molecule B1 has a Km [21] of 199.9 µM and a Vmax [21] of 1.58 nmol/mg protein/min.

B2: CYP1A2 (Homo sapiens) (protein)
chain: T1 sequence (P05177 1-516)
Work on B2 yielded a Km [22] of 709 µM and a Vmax [22] of 9.67 pmol/mg protein/min.
